According to patent US20250368647A1, “NITROGEN CONTAINING CONDENSED 2,3-DIHYDROQUINAZOLINONE COMPOUNDS AS NAV1.8 INHIBITORS” (GLAXOSMITHKLINE INTELLECTUAL PROPERTY DEVELOPMENT LIMITED, priority 2022, published 2025):
Where a name gives a salt, the structure may show the parent alone.

Each compound was assayed against human Nav1.8 (Homo sapiens (Human), UniProt Q9Y5Y9) (assay: QPatch 48 HTX voltage-clamp electrophysiology, half inactivation state (V1/2) protocol, HEK293-Nav1.8 cells). Conditions: HEK293 cells expressing human Nav1.8, human Navβ1 and human TREK1, P2 current.
Format: cell-based
Method in brief: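 HEK293 cells co-expressing Navβ1 and TREK1 were voltage-clamped from −100 mV: a 20 ms step to 0 mV, 8 s inactivation at −46 mV, 20 ms at −100 mV, then a 20 ms P2 test step to 0 mV, repeated every 15 s. P2 current was normalized to vehicle and full block, corrected for run-down, and Hill-fitted (4–6 concentrations) for IC50.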

human Nav1.8, sequence (Q9Y5Y9 whole entry): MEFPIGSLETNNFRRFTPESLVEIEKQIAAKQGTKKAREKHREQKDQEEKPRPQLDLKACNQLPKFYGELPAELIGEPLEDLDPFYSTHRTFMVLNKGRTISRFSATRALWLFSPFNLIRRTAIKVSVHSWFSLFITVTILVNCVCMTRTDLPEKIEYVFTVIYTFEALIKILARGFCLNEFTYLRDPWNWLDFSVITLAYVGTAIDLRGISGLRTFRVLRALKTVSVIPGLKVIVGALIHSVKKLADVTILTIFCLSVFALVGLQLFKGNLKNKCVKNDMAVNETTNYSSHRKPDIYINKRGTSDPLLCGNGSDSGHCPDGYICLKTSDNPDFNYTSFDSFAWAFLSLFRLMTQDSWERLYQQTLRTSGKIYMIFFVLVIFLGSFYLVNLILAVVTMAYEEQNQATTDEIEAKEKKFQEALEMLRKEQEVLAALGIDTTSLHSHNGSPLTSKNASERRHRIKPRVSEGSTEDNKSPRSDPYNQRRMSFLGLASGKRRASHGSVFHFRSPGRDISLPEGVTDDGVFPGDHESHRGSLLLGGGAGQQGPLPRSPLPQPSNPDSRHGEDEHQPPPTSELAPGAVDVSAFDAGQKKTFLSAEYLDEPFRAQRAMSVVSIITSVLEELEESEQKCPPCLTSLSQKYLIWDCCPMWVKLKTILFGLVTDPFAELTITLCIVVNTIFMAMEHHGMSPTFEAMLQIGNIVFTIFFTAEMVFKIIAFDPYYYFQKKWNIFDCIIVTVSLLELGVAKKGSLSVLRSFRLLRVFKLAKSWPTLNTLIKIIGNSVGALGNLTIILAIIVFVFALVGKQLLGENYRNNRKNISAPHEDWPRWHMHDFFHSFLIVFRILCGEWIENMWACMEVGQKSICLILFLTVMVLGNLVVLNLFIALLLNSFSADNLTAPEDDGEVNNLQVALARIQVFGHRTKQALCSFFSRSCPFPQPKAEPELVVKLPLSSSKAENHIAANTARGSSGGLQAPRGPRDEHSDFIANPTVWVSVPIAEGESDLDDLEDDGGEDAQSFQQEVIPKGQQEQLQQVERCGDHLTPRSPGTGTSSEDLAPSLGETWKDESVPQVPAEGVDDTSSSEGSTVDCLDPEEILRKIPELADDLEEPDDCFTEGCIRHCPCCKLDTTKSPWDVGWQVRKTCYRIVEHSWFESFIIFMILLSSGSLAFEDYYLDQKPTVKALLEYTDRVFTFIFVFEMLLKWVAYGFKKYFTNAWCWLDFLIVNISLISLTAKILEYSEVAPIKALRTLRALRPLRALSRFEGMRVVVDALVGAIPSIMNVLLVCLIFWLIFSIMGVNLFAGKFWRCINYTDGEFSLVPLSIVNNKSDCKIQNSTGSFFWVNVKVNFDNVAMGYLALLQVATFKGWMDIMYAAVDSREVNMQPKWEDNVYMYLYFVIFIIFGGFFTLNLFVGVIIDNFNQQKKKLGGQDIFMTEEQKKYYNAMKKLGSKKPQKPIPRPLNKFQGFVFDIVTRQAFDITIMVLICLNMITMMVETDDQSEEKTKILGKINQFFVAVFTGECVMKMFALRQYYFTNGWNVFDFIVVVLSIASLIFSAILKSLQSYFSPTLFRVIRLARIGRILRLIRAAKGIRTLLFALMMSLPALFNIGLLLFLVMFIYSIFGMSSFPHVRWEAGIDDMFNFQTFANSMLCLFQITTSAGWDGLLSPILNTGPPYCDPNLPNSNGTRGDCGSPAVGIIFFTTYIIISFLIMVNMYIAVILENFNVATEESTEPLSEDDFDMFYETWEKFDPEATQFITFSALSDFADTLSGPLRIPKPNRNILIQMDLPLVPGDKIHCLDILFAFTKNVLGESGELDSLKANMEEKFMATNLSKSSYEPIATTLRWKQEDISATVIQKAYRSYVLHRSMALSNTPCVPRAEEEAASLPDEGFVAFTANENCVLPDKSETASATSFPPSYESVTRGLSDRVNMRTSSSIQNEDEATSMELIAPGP
human Nav1.8, sequence (Q07699 19-218 partner): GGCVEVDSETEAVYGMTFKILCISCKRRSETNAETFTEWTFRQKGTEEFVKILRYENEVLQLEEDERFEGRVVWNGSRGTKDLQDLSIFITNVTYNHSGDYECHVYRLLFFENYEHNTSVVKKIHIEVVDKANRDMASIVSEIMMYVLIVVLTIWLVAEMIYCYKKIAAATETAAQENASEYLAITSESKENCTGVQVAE

Row | Compound | Nav1.8, pIC50
1 | O=C1c2cc(C(F)(F)F)ccc2N2CN1c1ccc(=O)[nH]c1CCCOc1cc(F)ccc12 [Example 16, 8-Fluoro-2-(trifluoromethyl)-12,13-dihydro-11H,19H-5,18-methanodibenzo[b,e]pyrido[3,2-i][1]oxa[4,8]diazacyclotridecine-15,19(14H)-dione] | 6.0
2 | CC1CCc2c(ccc(F)c2F)N2CN(C(=O)c3cc(F)c(C(F)(F)F)cc32)c2ccc(=O)[nH]c2N1 (centres unmarked) [Example 130, 2,8,9-Trifluoro-12-methyl-3-(trifluoromethyl)-10,11,12,13-tetrahydro-19H-5,18-methanodibenzo[f,i]pyrido[2,3-b][1,4,8]triazacyclotridecin-15,19(14H)-dione] | 6.8
3 | O=C1c2cc(C(F)(F)F)cnc2N2CN1c1ccc(=O)[nH]c1CC/C=C\Cc1cc(F)ccc12 [Example 24, 3^4-Fluoro-2^6-(trifluoromethyl)-1^1,1^2,2^1,2^2,2^3,2^4-hexahydro-2(3,1)-pyrido[2,3-d]pyrimidina-1(5,6)-pyridina-3(1,2)-benzenacyclooctaphan-5-ene-1^2,2^4-dione] | 7.7
4 | CC1NCCc2[nH]c(=O)ccc2N2CN(c3ccc(C(F)(F)F)cc3C2=O)c2ccc(F)cc21 (racemic) [Example 114, 8-Fluoro-10-methyl-2-(trifluoromethyl)-10,11,12,13-tetrahydro-19H-5,18-methanodibenzo[c,f]-pyrido[3,2-j][1,5,9]triazacyclotridecine-15,19(14H)-dione hydrochloride] | 6.8
5 | N#Cc1cc2c(cc1F)C(=O)N1CN2c2ccc(F)c(F)c2CNCCc2[nH]c(=O)ccc21 [Example 57, 2,8,9-Trifluoro-15,19-dioxo-10,11,12,13,14,15-hexahydro-19H-5,18-methano-dibenzo[c,f]pyrido[3,2-j][1,5,9]triazacyclotridecine-3-carbonitrile] | 7.4
6 | O=C1c2c(ccc(C(F)(F)F)c2F)N2CN1c1ccc(=O)[nH]c1NCCCc1c2ccc(F)c1F [Example 97, 1,8,9-Trifluoro-2-(trifluoromethyl)-10,11,12,13-tetrahydro-19H-5,18-methanodibenzo[f,i]pyrido-[2,3-b][1,4,8]triazacyclotridecine-15,19(14H)-dione] | 7.6
7 | O=C1c2cc(C(F)(F)F)cnc2N2CN1c1ccc(=O)[nH]c1CCCCc1cc(OC(F)(F)F)ccc12 [Example 17, 8-(Trifluoromethoxy)-2-(trifluoromethyl)-10,11,12,13-tetahydro-19H,19H-5,18-methano-dibenzo[l]pyrido[2,3-b:3′,2′-f][1,5]diazacyclotridecine-15,19(14H)-dione] | 6.1
8 | N#Cc1cc2c(cc1F)C(=O)N1CN2c2ccc(F)c(Cl)c2CNCCc2[nH]c(=O)ccc21 [Example 67, 9-chloro-2,8-difluoro-15,19-dioxo-10,11,12,13,14,15-hexahydro-19H-5,18-methanodibenzo[c,f]pyrido[3,2-j][1,5,9]triazacyclotridecine-3-carbonitrile] | 8.3
9 | O=C1c2cc(Cl)cnc2N2CN1c1ccc(=O)[nH]c1CCCCCc1cc(F)ccc12 [Example 20, 2^6-Chloro-3^4-fluoro-1^1,1^2,2^1,2^2,2^3,2^4-hexahydro-2(3,1)-pyrido[2,3-d]pyrimidina-1(5,6)-pyridina-3(1,2)-benzenacyclooctaphane-1^2,2^4-dione] | 7.2
10 | Cl.O=C1c2cc(C(F)(F)F)ccc2N2CN1c1ccc(=O)[nH]c1CCNCc1ccccc12 [Example 78, 2-(Trifluoromethyl)-10,11,12,13-tetrahydro-19H-5,18-methanodibenzo[c,f]pyrido[3,2-j][1,5,9]triazacyclotridecine-15,19(14H)-dione hydrochloride] | 6.7
11 | Cl.N#Cc1cc2c(cc1Cl)C(=O)N1CN2c2ccc(F)c(F)c2CNCCc2[nH]c(=O)ccc21 [Example 72, 2-Chloro-8,9-difluoro-15,19-dioxo-10,11,12,13,14,15-hexahydro-19H-5,18-methanodibenzo-[c,f]pyrido[3,2-j][1,5,9]triazacyclotridecine-3-carbonitrile hydrochloride] | 7.5
12 | O=C1c2cc(OC(F)(F)F)ccc2N2CN1c1ccc(=O)[nH]c1NCCCc1cc(F)ccc12 [Example 31, 8-Fluoro-2-(trifluoromethoxy)-10,11,12,13-tetrahydro-19H-5,18-methanodibenzo[f,i]pyrido[2,3,-b][1,4,8]triazacyclotridecine-15,19(14H)-dione] | 7.5
13 | O=C1c2cc(Cl)c(F)cc2N2CN1c1ccc(=O)[nH]c1CCNCc1cc(F)ccc12 [Example 43, 2-Chloro-3,8-difluoro-10,11,12,13-tetrahydro-19H-5,18-methanodibenzo[c,f]pyrido[3,2-f][1,5,9]triazacyclotridecine-15,19(14H)-dione] | 7.4
14 | Cl.O=C1c2cc(F)c(Cl)cc2N2CN1c1ccc(=O)[nH]c1CCNCc1c2ccc(F)c1F [Example 49, 3-Chloro-2,8,9-trifluoro-10,11,12,13-tetrahydro-19H-5,18-methanodibenzo[c,f]pyrido[3,2-j][1,5,9]triazacyclotridecine-15,19(14H)-dione hydrochloride] | 8.2
15 | CC1Cc2[nH]c(=O)ccc2N2CN(c3ccc(F)cc3CN1)c1cc(C(F)(F)F)c(F)cc1C2=O (racemic) [Example 123, 2,8-Difluoro-12-methyl-3-(trifluoromethyl)-10,11,12,13-tetrahydro-19H-5,18-methanodibenzo-[c,f]pyrido[3,2-j][1,5,9]triazacyclotridecine-15,19(14H)-dione hydrochloride] | 6.1
16 | O=C1c2cc(C(F)(F)F)ccc2N2CN1c1ccc(=O)[nH]c1NCCCc1cc(F)c(F)cc12 [Example 39, 7,8-Difluoro-2-(trifluoromethyl)-10,11,12,13-tetrahydro-19H-5,18-methanodibenzo[f,i]dipyrido[2,3,-b][1,4,8]triazacyclotridecine-15,19(14H)-dione] | 7.0
17 | O=C1c2c(ccc(C(F)(F)F)c2F)N2CN1c1ccc(=O)[nH]c1CCNCc1cc(F)ccc12 [Example 45, 1,8-Difluoro-2-(trifluoromethyl)-10,11,12,13-tetrahydro-19H-5,18-methanodibenzo[c,f]pyrido[3,2-j][1,5,9]triazacyclotridecine-15,19(14H)-dione] | 6.9

Same assay, conditions: HEK293 cells expressing human Nav1.8, human Navβ1 and human TREK1, P2 current, read-out: Nav1.8, pIC50 (converted)

Row | Compound | IC50 [nM]
18 | C[C@@H]1NCCc2[nH]c(=O)ccc2N2CN(c3cc(C(F)(F)F)c(F)cc3C2=O)c2ccc(F)cc21 [Example 119, (10S)-2,8-Difluoro-10-methyl-3-(trifluoromethyl)-10,11,12,13-tetrahydro-19H-5,18-methanodibenzo[c,f]pyrido[3,2-j][1,5,9]triazacyclotridecine-11(10H)-dione] | 631
19 | C[C@H]1CCNc2[nH]c(=O)ccc2N2CN(c3cc(C(F)(F)F)c(F)cc3C2=O)c2ccc(F)c(F)c21 [Example 132, (10S)-2,8,9-trifluoro-10-methyl-3-(trifluoromethyl)-10,11,12,13-tetrahydro-19H-5,18-methanodibenzo[f,i]pyrido[2,3-b][1,4,8]triazacyclotridecine-15,19(14H)-dione] | 6.31
20 | Cc1c(F)ccc2c1CNCCc1[nH]c(=O)ccc1N1CN2c2cc(C(F)(F)F)c(F)cc2C1=O [Example 61, 2,8-Difluoro-9-methyl-3-(trifluoromethyl)-10,11,12,13-tetrahydro-19H-5,18-methanodibenzo[c,f]pyrido[3,2-j][1,5,9]triazacyclotridecine-15,19(14H)-dione hydrochloride] | 3.98
